Reference: patent US20020137929A1, “1 - (3-heterocyclylphenyl) isothiourea, -isourea, -guanidine and -amidine herbicidal agents” (Intellectual Property Department, BASF Aktiengesellschaft, priority 1998, published 2002)

Legend:
[1] = system: ZEAMX (Corn, Field); assay: Postemergence herbicidal evaluation; type: in vivo, Zea mays; conditions: postemergence
In short: (§1)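 Visual 0–9 rating versus control (stand, vigor, malformation, size, chlorosis, overall appearance), taken four to five weeks post-spray. Two-week-old seedlings received roughly 0.0156–0.500 kg/ha active in acetone/water (50/50) with 0.5% TWEEN 20 via nozzle at 40 psi.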

[2] = system: ECHCG (Barnyardgrass); assay: Preemergence herbicidal evaluation; type: in vivo, Echinochloa crus-galli; conditions: rated 4-5 weeks after treatment
In short: (§2)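 Scores (0–9) reflect visual comparison with control plants for stand, vigor, malformation, size and chlorosis. Compound was applied to the soil after sowing, before emergence, as an aqueous acetone spray (about 0.0156–0.500 kg/ha), and cups were kept in a greenhouse for 4–5 weeks.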

[3] = system: SAGPY (Arrowhead (Pygmaea)); assay: Postemergence weed control under flooded paddy conditions; type: in vivo, Sagittaria pygmaea; conditions: postemergence weeds, 3-4 weeks after treatment
In short: (§3)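 With weeds 3 to 5 cm tall and rice at the 1.5 to 2.5 leaf stage, containers were flooded and water held 1.5 to 3 cm above soil. Compounds in 50/50 v/v aqueous/acetone went into the flood water at about 0.0313 to 0.500 kg/ha a.i. Effects were visually rated 0–9 against controls after three to four weeks in the greenhouse.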

[4] = system: CYPIR (Rice Flatsedge); assay: as above; type: in vivo, Cyperus iria; conditions: postemergence weeds, 3-4 weeks after treatment
In short: as §3

[5] = system: ECHORC (Watergrass (Calif.)); assay: Preemergence weed control under flooded paddy conditions; type: in vivo, Echinochloa oryzoides; conditions: rated 3-4 weeks after treatment
In short: (§4)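 Flooded-pot preemergence screen with silt loam and seeds in the upper 0.5 cm. Dose about 0.0313 to 0.500 kg/ha, delivered into flood water; visual 0-9 score after 3 to 4 weeks.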

[6] = system: CYPSE (Flatsedge); assay: as above; type: in vivo, Cyperus serotinus; conditions: rated 3-4 weeks after treatment
In short: as §4

[7] = system: CYPSE (Flatsedge); assay: Postemergence weed control under flooded paddy conditions; type: in vivo, Cyperus serotinus; conditions: postemergence weeds, 3-4 weeks after treatment
In short: as §3

[8] = system: ORYSAT (Rice, Tebonnet); assay: Postemergence herbicidal evaluation; type: in vivo, Oryza sativa, (L.) Tebonnet; conditions: postemergence
In short: as §1

[9] = system: SETVI (Foxtail, Green); assay: Postemergence herbicidal evaluation; type: in vivo, Setaria viridis; conditions: postemergence
In short: as §1

[10] = system: SETVI (Foxtail, Green); assay: Preemergence herbicidal evaluation; type: in vivo, Setaria viridis; conditions: rated 4-5 weeks after treatment
In short: as §2

[11] = system: CYPIR (Rice Flatsedge); assay: Preemergence weed control under flooded paddy conditions; type: in vivo, Cyperus iria; conditions: rated 3-4 weeks after treatment
In short: as §4

[12] = system: ECHORC (Watergrass (Calif.)); assay: Postemergence weed control under flooded paddy conditions; type: in vivo, Echinochloa oryzoides; conditions: postemergence weeds, 3-4 weeks after treatment
In short: as §3

[13] = system: ZEAMX (Corn, Field); assay: Preemergence herbicidal evaluation; type: in vivo, Zea mays; conditions: rated 4-5 weeks after treatment
In short: as §2

[14] = system: TRZAWR (Wheat, Winter, cv Riband); assay: Preemergence herbicidal evaluation; type: in vivo, Triticum aestivum; conditions: rated 4-5 weeks after treatment
In short: as §2

CCC1SC(=Nc2cc(N3C(=O)C4=C(CCCC4)C3=O)c(F)cc2Cl)N(C)C1=O (stereo not shown) [Compound 6, N-{4-chloro-5-[(5-ethyl-3-methyl-4-oxo-2-thiazolidinylidene)amino]-2-fluorophenyl}-1-cyclohexene-1,2-dicarboximide]
ZEAMX herbicidal rating ([1]; rate 0.0157 kg/ha): 3.0 | ZEAMX herbicidal rating ([1]; rate 0.0313 kg/ha): 3.5 | ZEAMX herbicidal rating ([1]; rate 0.0625 kg/ha): 3.5 | ZEAMX herbicidal rating ([1]; rate 0.1250 kg/ha): 3.5 | ZEAMX herbicidal rating ([1]; rate 0.2500 kg/ha): 3.5 | ZEAMX herbicidal rating ([1]; rate 0.5000 kg/ha): 4.0 | ECHCG preemergence herbicidal rating ([2]; rate 0.1250 kg/ha): 0.0 | ECHCG preemergence herbicidal rating ([2]; rate 0.2500 kg/ha): 0.0 | ECHCG preemergence herbicidal rating ([2]; rate 0.5000 kg/ha): 2.0 | Herbicidal rating SAGPY ([3]; rate 0.0313 kg/ha): 0.0 | Herbicidal rating SAGPY ([3]; rate 0.0625 kg/ha): 0.0 | Herbicidal rating SAGPY ([3]; rate 0.1250 kg/ha): 0.0 | Herbicidal rating SAGPY ([3]; rate 0.2500 kg/ha): 0.0 | Herbicidal rating SAGPY ([3]; rate 0.5000 kg/ha): 0.0 | Herbicidal rating CYPIR ([4]; rate 0.0313 kg/ha): 0.0 | Herbicidal rating CYPIR ([4]; rate 0.0625 kg/ha): 1.0 | Herbicidal rating CYPIR ([4]; rate 0.1250 kg/ha): 2.0 | Herbicidal rating CYPIR ([4]; rate 0.2500 kg/ha): 3.0 | Herbicidal rating CYPIR ([4]; rate 0.5000 kg/ha): 3.5 | Herbicidal rating ECHORC ([5]; 0.0313 kg/ha): 0.0 | Herbicidal rating ECHORC ([5]; 0.0625 kg/ha): 0.0 | Herbicidal rating ECHORC ([5]; 0.1250 kg/ha): 2.0 | Herbicidal rating ECHORC ([5]; 0.2500 kg/ha): 7.0 | Herbicidal rating ECHORC ([5]; 0.5000 kg/ha): 7.0 | Herbicidal rating CYPSE ([6]; 0.0313 kg/ha): 0.0 | Herbicidal rating CYPSE ([6]; 0.0625 kg/ha): 0.0 | Herbicidal rating CYPSE ([6]; 0.1250 kg/ha): 0.0 | Herbicidal rating CYPSE ([6]; 0.2500 kg/ha): 0.0 | Herbicidal rating CYPSE ([6]; 0.5000 kg/ha): 0.0 | Herbicidal rating CYPSE ([7]; rate 0.0313 kg/ha): 0.0 | Herbicidal rating CYPSE ([7]; rate 0.0625 kg/ha): 0.0 | Herbicidal rating CYPSE ([7]; rate 0.1250 kg/ha): 0.0 | Herbicidal rating CYPSE ([7]; rate 0.2500 kg/ha): 0.0 | Herbicidal rating CYPSE ([7]; rate 0.5000 kg/ha): 0.0 | ORYSAT herbicidal rating ([8]; rate 0.0157 kg/ha): 2.5 | ORYSAT herbicidal rating ([8]; rate 0.0313 kg/ha): 2.5 | ORYSAT herbicidal rating ([8]; rate 0.0625 kg/ha): 2.5 | ORYSAT herbicidal rating ([8]; rate 0.1250 kg/ha): 2.5 | ORYSAT herbicidal rating ([8]; rate 0.2500 kg/ha): 2.5 | ORYSAT herbicidal rating ([8]; rate 0.5000 kg/ha): 2.5 | SETVI herbicidal rating ([9]; rate 0.0157 kg/ha): 0.0 | SETVI herbicidal rating ([9]; rate 0.0313 kg/ha): 0.0 | SETVI herbicidal rating ([9]; rate 0.0625 kg/ha): 0.0 | SETVI herbicidal rating ([9]; rate 0.1250 kg/ha): 2.0 | SETVI herbicidal rating ([9]; rate 0.2500 kg/ha): 2.0 | SETVI herbicidal rating ([9]; rate 0.5000 kg/ha): 2.0 | SETVI preemergence herbicidal rating ([10]; rate 0.1250 kg/ha): 0.0 | SETVI preemergence herbicidal rating ([10]; rate 0.2500 kg/ha): 2.0 | Herbicidal rating CYPIR ([11]; 0.0313 kg/ha): 0.0 | Herbicidal rating CYPIR ([11]; 0.0625 kg/ha): 2.0 | Herbicidal rating CYPIR ([11]; 0.1250 kg/ha): 4.0 | Herbicidal rating CYPIR ([11]; 0.2500 kg/ha): 6.0 | Herbicidal rating CYPIR ([11]; 0.5000 kg/ha): 7.0 | Herbicidal rating ECHORC ([12]; rate 0.0313 kg/ha): 0.0 | Herbicidal rating ECHORC ([12]; rate 0.0625 kg/ha): 0.0 | Herbicidal rating ECHORC ([12]; rate 0.1250 kg/ha): 1.0 | Herbicidal rating ECHORC ([12]; rate 0.2500 kg/ha): 3.5 | Herbicidal rating ECHORC ([12]; rate 0.5000 kg/ha): 3.5 | ZEAMX preemergence herbicidal rating ([13]; rate 0.1250 kg/ha): 0.0 | ZEAMX preemergence herbicidal rating ([13]; rate 0.2500 kg/ha): 0.0 | ZEAMX preemergence herbicidal rating ([13]; rate 0.5000 kg/ha): 0.0 | TRZAWR preemergence herbicidal rating ([14]; rate 0.1250 kg/ha): 0.0 | TRZAWR preemergence herbicidal rating ([14]; rate 0.2500 kg/ha): 0.0 | TRZAWR preemergence herbicidal rating ([14]; rate 0.5000 kg/ha): 0.0

CN1C(=O)CS/C1=N/c1cc(-n2c(=O)cc(C(F)(F)F)n(C)c2=O)c(F)cc1Cl [Compound 7]
ZEAMX herbicidal rating ([1]; rate 0.0157 kg/ha): 5.0 | ZEAMX herbicidal rating ([1]; rate 0.0313 kg/ha): 6.0 | ZEAMX herbicidal rating ([1]; rate 0.0625 kg/ha): 7.0 | ZEAMX herbicidal rating ([1]; rate 0.1250 kg/ha): 7.0 | ECHCG preemergence herbicidal rating ([2]; rate 0.0157 kg/ha): 5.0 | ECHCG preemergence herbicidal rating ([2]; rate 0.0313 kg/ha): 9.0 | ECHCG preemergence herbicidal rating ([2]; rate 0.0625 kg/ha): 9.0 | ECHCG preemergence herbicidal rating ([2]; rate 0.1250 kg/ha): 9.0 | ECHCG preemergence herbicidal rating ([2]; rate 0.2500 kg/ha): 9.0 | Herbicidal rating SAGPY ([3]; rate 0.0313 kg/ha): 3.0 | Herbicidal rating SAGPY ([3]; rate 0.0625 kg/ha): 5.5 | Herbicidal rating SAGPY ([3]; rate 0.1250 kg/ha): 7.5 | Herbicidal rating SAGPY ([3]; rate 0.2500 kg/ha): 8.5 | Herbicidal rating CYPIR ([4]; rate 0.0313 kg/ha): 8.5 | Herbicidal rating CYPIR ([4]; rate 0.0625 kg/ha): 9.0 | Herbicidal rating CYPIR ([4]; rate 0.1250 kg/ha): 9.0 | Herbicidal rating CYPIR ([4]; rate 0.2500 kg/ha): 9.0 | Herbicidal rating ECHORC ([5]; 0.0313 kg/ha): 8.0 | Herbicidal rating ECHORC ([5]; 0.0625 kg/ha): 9.0 | Herbicidal rating ECHORC ([5]; 0.1250 kg/ha): 9.0 | Herbicidal rating ECHORC ([5]; 0.2500 kg/ha): 9.0 | Herbicidal rating CYPSE ([6]; 0.0313 kg/ha): 4.0 | Herbicidal rating CYPSE ([6]; 0.0625 kg/ha): 7.0 | Herbicidal rating CYPSE ([6]; 0.1250 kg/ha): 7.0 | Herbicidal rating CYPSE ([6]; 0.2500 kg/ha): 9.0 | Herbicidal rating CYPSE ([7]; rate 0.0313 kg/ha): 3.0 | Herbicidal rating CYPSE ([7]; rate 0.0625 kg/ha): 7.0 | Herbicidal rating CYPSE ([7]; rate 0.1250 kg/ha): 7.5 | Herbicidal rating CYPSE ([7]; rate 0.2500 kg/ha): 8.0 | ORYSAT herbicidal rating ([8]; rate 0.0157 kg/ha): 4.5 | ORYSAT herbicidal rating ([8]; rate 0.0313 kg/ha): 4.0 | ORYSAT herbicidal rating ([8]; rate 0.0625 kg/ha): 4.5 | ORYSAT herbicidal rating ([8]; rate 0.1250 kg/ha): 6.5 | SETVI herbicidal rating ([9]; rate 0.0157 kg/ha): 5.0 | SETVI herbicidal rating ([9]; rate 0.0313 kg/ha): 4.0 | SETVI herbicidal rating ([9]; rate 0.0625 kg/ha): 9.0 | SETVI herbicidal rating ([9]; rate 0.1250 kg/ha): 9.0 | SETVI preemergence herbicidal rating ([10]; rate 0.0157 kg/ha): 9.0 | SETVI preemergence herbicidal rating ([10]; rate 0.0313 kg/ha): 9.0 | SETVI preemergence herbicidal rating ([10]; rate 0.0625 kg/ha): 9.0 | SETVI preemergence herbicidal rating ([10]; rate 0.1250 kg/ha): 9.0 | SETVI preemergence herbicidal rating ([10]; rate 0.2500 kg/ha): 9.0 | Herbicidal rating CYPIR ([11]; 0.0313 kg/ha): 8.0 | Herbicidal rating CYPIR ([11]; 0.0625 kg/ha): 9.0 | Herbicidal rating CYPIR ([11]; 0.1250 kg/ha): 9.0 | Herbicidal rating CYPIR ([11]; 0.2500 kg/ha): 9.0 | Herbicidal rating ECHORC ([12]; rate 0.0313 kg/ha): 7.0 | Herbicidal rating ECHORC ([12]; rate 0.0625 kg/ha): 8.5 | Herbicidal rating ECHORC ([12]; rate 0.1250 kg/ha): 9.0 | Herbicidal rating ECHORC ([12]; rate 0.2500 kg/ha): 9.0 | ZEAMX preemergence herbicidal rating ([13]; rate 0.0157 kg/ha): 7.0 | ZEAMX preemergence herbicidal rating ([13]; rate 0.0313 kg/ha): 8.0 | ZEAMX preemergence herbicidal rating ([13]; rate 0.0625 kg/ha): 8.5 | ZEAMX preemergence herbicidal rating ([13]; rate 0.1250 kg/ha): 8.5 | ZEAMX preemergence herbicidal rating ([13]; rate 0.2500 kg/ha): 9.0 | TRZAWR preemergence herbicidal rating ([14]; rate 0.0157 kg/ha): 5.0 | TRZAWR preemergence herbicidal rating ([14]; rate 0.0313 kg/ha): 6.5 | TRZAWR preemergence herbicidal rating ([14]; rate 0.0625 kg/ha): 7.5 | TRZAWR preemergence herbicidal rating ([14]; rate 0.1250 kg/ha): 8.5 | TRZAWR preemergence herbicidal rating ([14]; rate 0.2500 kg/ha): 8.5
